Reference: patent US8142799B2, “High potency clinical anti-craving treatment and method of use” (priority 2001, dated 2012)

With `N[C@@H](CCC(=O)N[C@@H](CS)C(=O)NCC(=O)O)C(=O)O` [L-glutathione] as the compound, how does the “time to PH breakdown” value (L-Glutathione at a PH value of roughly 7 in the amino-acid component) read?
Its value is “a few weeks”.

And the “PH above which L-glutathione itself breaks down” value (at compounding)?
Its value is “above 7.2”.
